Data set [1] is described as follows: MTT cytotoxicity in nonmalignant bronchial epithelium cells. Conditions: human. The data set is classed as cell-based. The method, boiled down:
(§1)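 184B5 cells grown in supplemented DMEM/F12, BEAS-2B in RPMI with 10% FBS. 1 × 10^4 cells/well exposed to increasing compound concentrations for 48 h at 37 °C, 5% CO2, then MTT 4 h and formazan dissolved in DMSO. At least 3 independent experiments in quadruplicate; cisplatin as reference.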

The subject of a further data set is BEAS-2B. Described as above. The data set is classed as cell-based. To be noted: for GI50 / IC (TGI): Homo sapiens, BEAS-2B, 48 h; for GI50: read-out: GI50 BEAS-2B; for IC (TGI): read-out: TGI BEAS-2B; for Selectivity index (SI) = GI50 (BEAS-2B)/GI50 (HTB-54): lung. The method, boiled down: as §1
The subject of data set [2] is MCF-7. In words: Cell death (subdiploid cells), Apo-Direct kit TUNEL flow cytometry. The class given is cell-based, human. Conditions: 24 h, increasing doses (I.1f 10 to 80 µM). The protocol:
(§2) For the MCF-7 cell line, both cell cycle analysis and the cell death percentage were determined using the Apo-Direct kit (BD Pharmingen) based on the TUNEL technique, according to the manufacturer’s instructions. Cells were seeded in 25 cm^2 flasks (3 × 10^6 for 24 h of treatment, 2 × 10^6 for 48 h and 10^6 for 72 h) treated with DMSO (negative control), 6 µM of camptothecin (positive control) and different concentrations of I.1f, I.2f and II.2d.
(§3) After treatment, cells were collected and fixed with 1% paraformaldehyde (Sigma) in PBS (pH = 7.4), incubated in ice for 40 min, collected by centrifugation, washed with PBS and incubated with 70% ethanol for 30 min at −20 °C. After fixation, cells were washed twice with PBS and incubated for 1 h at 37 °C with FITC dUTP-DNA Labeling Solution. Cells were then rinsed and incubated in the dark for 30 min at room temperature with PI/RNase staining buffer before being analyzed by flow cytometry (Coulter Epics XL, Beckman Coulter Flow cytometer). Then, cells were treated with compounds I.1f (80 µM), I.2f (30 µM) and II.2d (5 µM) at different times (from 8 to 72 h) following the same methodology.
(§4) Apoptosis and cell cycle arrest are typical mechanisms of action for many anticancer drugs, including selenocompounds [34, 35, 36]. In a first approach, the effect of the selected compounds on cell cycle progression and the induction of apoptosis was studied in MCF-7 cell cultures. Analyses were performed by flow cytometry using the Apo-Direct kit, based on the TUNEL technique under the conditions described by the manufacturer. The cells were treated with the corresponding compound at different concentrations and time points. Camptothecin was used as a positive control at 6 µM.
(In general: Flow cytometry measures light scatter and fluorescence of single cells or particles in a stream.)

Data set [3] concerns MCF-7. Put plainly: Cell cycle phase distribution by flow cytometry. To be noted: 24 h, different doses. The data set is classed as cell-based, human. The protocol: as §2, §3, §4
To further understand the mechanism of action of these potent compounds, their effects on cell cycle distribution in MCF-7 were studied by flow cytometry. This assay was carried out with different concentrations (Figure 6) and different time points (Figure 7).

Data set [4] concerns MCF-7. In words: Autophagy and caspase inhibition assays (wortmannin, Z-VAD-FMK pretreatment). The data set is classed as cell-based, human. Conditions: I.1f 80 µM 72 h, I.2f 30 µM 24 h, II.2d 20 µM 24 h; for Compound-induced cell death after preincubation with wortmannin: 100 nM wortmannin 1 h; for Compound-induced cell death after preincubation with Z-VAD-FMK: 50 µM Z-VAD-FMK 1 h. The protocol: For autophagy and caspase inhibition assays, cells were pretreated with 100 nM of autophagy inhibitor (wortmannin, Santa Cruz) and 50 µM of pan-caspase inhibitor (Z-VAD-FMK, BD Pharmingen) for 1 h. The cells were treated with the compounds I.2f (30 µM) and II.2d (20 µM) for 24 h and I.1f (80 µM) for 72 h. Samples were processed following the same methodology stated above. DMSO was used as a negative control for both inhibitors.
Apoptosis and autophagy are considered as two recognized pathways for anticancer agents due to their effects on cell survival. In the next step, in order to investigate whether the cell death pathway is related to apoptosis or autophagy, we explored the effect of pre-treated cells with either an autophagy inhibitor (wortmannin) or a pan-caspase inhibitor (Z-VAD-FMK). According to the previous results, determinations were performed after treatment with 80 μM of I.1f for 72 h, 30 μM of I.2f for 24 h and 20 μM of II.2d for 24 h.

Data set [5] has as its system MCF-7. In words: Western blot of autophagy and apoptosis markers. The data set is classed as cell-based, human. To be noted: for Beclin-1 and LC3B levels / Phosphorylation of AMPK and JNK / SQSTM1/p62 (autophagic flux): I.1f 80 µM 48 h, I.2f 30 µM 24 h. For orientation: In western blotting, separated proteins are transferred to a membrane and probed.
Data set [6] relates to MCF-7. In words: cells. Conditions: Homo sapiens, MCF7, 48 h; for activity at 10 µM: read-out: Cell growth (%) MCF-7; for CC50: read-out: LC50 MCF-7; for IC (TGI): read-out: TGI MCF-7; for GI50: read-out: GI50 MCF-7, 48 h, average ± SEM.
The next data set deals with CCRF-CEM. Put plainly: cells. To be noted: Homo sapiens, 48 h; for activity at 10 µM: read-out: Cell growth (%) CCRF-CEM; for GI50: read-out: GI50 CCRF-CEM; for CC50: read-out: LC50 CCRF-CEM; for IC (TGI): read-out: TGI CCRF-CEM.
Setting [7] is: nonmalignant cells, 48 h, read-out: LC50 BEAS-2B.

The structures appear in SMILES notation. Like-named read-outs stand apart in the source and are kept apart here.

`O=C(Nc1ccc([Se][Se]c2ccc(NC(=O)c3ccc(C(F)(F)F)cc3)cc2)cc1)c1ccc(C(F)(F)F)cc1` [I.1f] showed an LC50 (50% lethal concentration) at 48 h in data set [1] of 72.9 µM. In addition, in the data set on BEAS-2B (nonmalignant cells), the GI50 is 10.7 µM and the IC (TGI) is 41.8 µM. Moreover, the “Selectivity index (SI) = GI50 (BEAS-2B)/GI50 (HTB-54)” value (shortened to “Selectivity index (SI) = GI50”) in the data set on BEAS-2B is 0.42. Further, the “Cell death (subdiploid cells)” value in the data set on MCF-7 [2] is given as “did not stimulate cell death”. For the same compound, the “Cell cycle phase distribution” value in the data set with MCF-7 [3] is on record as “increased the number of cells in the S phase dose-dependently”. For the same compound, in the data set on MCF-7 [4], the “Compound-induced cell death after preincubation with wortmannin” value is recorded as “prevented cell death” and the “Compound-induced cell death after preincubation with Z-VAD-FMK” value is reported as “did not”. Also, in the data set on MCF-7 [5], the “Beclin-1 and LC3B levels” value was “increased levels”; the “Phosphorylation of AMPK and JNK” value was “induced JNK and AMPK phosphorylation”; the “SQSTM1/p62 (autophagic flux)” value is “downregulated”. For the same compound, in the data set with MCF-7 [6], the activity at 10 µM worked out at 9.1%, the CC50 stood at 54.6 ± 0.7 µM and the IC (TGI) is 13 ± 0.3 µM. Moreover, in the data set on CCRF-CEM, the activity at 10 µM stood at 36.5%, the GI50 worked out at 4.7 ± 0.7 µM, the CC50 was 79.2 ± 4.1 µM and the IC (TGI) was found to be 31.7 ± 1.8 µM.
For the compound `N#C[Se]c1ccc(NC(=O)c2ccc(C(F)(F)F)cc2)cc1` [I.2f], the LC50 (50% lethal concentration) in data set [1] (setting [7]) is 73.2 µM. Moreover, in the data set with BEAS-2B (nonmalignant cells), the GI50 was 20.8 µM and the IC (TGI) turned out to be 47 µM. Also, the “Selectivity index (SI) = GI50” value with BEAS-2B turned out to be 0.70. Also, in the data set with MCF-7 [2], the “Cell death (subdiploid cells)” value is recorded as “provoked a significant increase in the number of death cells”. Also, the “Cell cycle phase distribution” value in the data set on MCF-7 [3] is given as “increased the number of cells in the S phase dose-dependently”. In addition, in the data set on MCF-7 [4], the “Compound-induced cell death after preincubation with wortmannin” value was “prevented cell death” and the “Compound-induced cell death after preincubation with Z-VAD-FMK” value was “did not”. In addition, in the data set on MCF-7 [5], the “Beclin-1 and LC3B levels” value is “increased levels”; the “Phosphorylation of AMPK and JNK” value is “induced JNK and AMPK phosphorylation”; the “SQSTM1/p62 (autophagic flux)” value is recorded as “downregulated”. Further, in the data set on MCF-7 [6], the activity at 10 µM was 44.8%, the 50% growth inhibitory concentration (GI50) was below 1 µM, the CC50 is 42.2 ± 0.8 µM and the IC (TGI) amounted to 6.2 ± 0.4 µM. Further, in the data set with CCRF-CEM, the activity at 10 µM stood at 54.6%, the GI50 came out at 7.3 ± 0.5 µM, the CC50 was above 100 µM and the IC (TGI) was above 100 µM.
Regarding `CCOP(=O)(Nc1ccc([Se]C#N)cc1)OCC` [II.2d], the LC50 (50% lethal concentration) at 48 h in data set [1] (setting [7]) came to 8.3 µM. In addition, in the data set on BEAS-2B, the concentration for 50% growth inhibition (GI50) was found to be 4.65 µM, the IC (TGI) came out at 6.59 µM and the “Selectivity index (SI) = GI50” value is reported as 2.85. For the same compound, the “Cell death (subdiploid cells)” value with MCF-7 [2] was “provoked a significant increase in the number of death cells”. For the same compound, in the data set with MCF-7 [3], the “Cell cycle phase distribution” value is “arrested them in G0/G1 phase”. Besides, in the data set on MCF-7 [4], the “Compound-induced cell death after preincubation with wortmannin” value is listed as “could not prevent cell death” and the “Compound-induced cell death after preincubation with Z-VAD-FMK” value was “prevented it”. In addition, in the data set on MCF-7 [5], the “BAX, p21, p53 levels” value is on record as “Significantly increased levels” and the Bcl-2 levels result was “decreased levels”. In the data set on MCF-7 [6], the activity at 10 µM is -17.2%, the GI50 is below 1 µM, the CC50 worked out at 8.4 ± 0.1 µM and the IC (TGI) was determined as 4.1 ± 0.1 µM. Further, in the data set on CCRF-CEM, the activity at 10 µM is -87.4%, the GI50 came out at 0.2 µM, the CC50 turned out to be 0.9 ± 0.1 µM and the IC (TGI) stood at 0.5 µM.

The GI50 is the concentration that inhibits growth by half.

(Values after PMC8069832, “New Amides and Phosphoramidates Containing Selenium: Studies on Their Cytotoxicity and Antioxidant Activities in Breast Cancer” (Antioxidants, 2021).)
